In patent publication US6166290A, “Glutathione-S-conjugate transport in plants” (The Trustees of the University of Pennsylvania, priority 1997, dated 2000):

Key:
[1] = target: T1, YCF1 (vacuolar membrane vesicles purified from DTY165 cells) (Saccharomyces cerevisiae, UniProt P39109); assay: [3H]DNP-GS uptake by vacuolar membrane vesicles purified from DTY165 cells; assay type: biochemical
T1 construct: endogenous in cells; host or cells: S. cerevisiae DTY165 (wild type YCF1), vacuolar membrane vesicles
Outline: (§1)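 ATP-dependent [3H]DNP-GS (66.2 μM) transport measured by filtration and scintillation counting of Ficoll-purified yeast vacuolar vesicles (DTY165 wild type; DTY167 ycf1Δ), 1–60 min at 25 °C in sorbitol/Tris-Mes pH 8.0 with 3 mM ATP, 3 mM MgSO4 and gramicidin-D. Nonenergized uptake without ATP/Mg2+.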

[2] = test system: vacuolar membrane vesicles purified from DTY167 cells (ycf1Δ mutant); assay type: biochemical, Saccharomyces cerevisiae; settings: 5 μM gramicidin D, GSH, GSSG 1 mM, GS-conjugates 100 μM
Outline: as §1

AtMRP1 = target: T2, AtMRP1 (Arabidopsis thaliana, UniProt Q9C8G9); assay: AtMRP1-dependent uptake by membrane vesicles from pYES3-AtMRP1-transformed DTY168 cells; assay type: biochemical; settings: MgATP-dependent, uncoupler-insensitive
T2 construct: S. cerevisiae DTY168 (ycf1 null) vacuolar-enriched membrane vesicles
Procedure: S. cerevisiae strain DTY168 (MATα his6, leu2-3, -112, ura3-52 ycf1::hisG) was transformed with pYES3-AtMRP1 or empty vector lacking the AtMRP1 insert (pYES3) by the LiOAc/PEG method (Giest et al., 1991, Yeast 7:253-263) and selected for uracil prototrophy by plating on AHC medium containing tryptophan (Kim et al., 1994, supra).
For the preparation of membrane vesicles, 15 ml volumes of stationary phase cultures of the transformants were diluted into 1 L of fresh AHC medium and grown to an OD600 nm of about 1.2. Membrane vesicles were purified as described herein and in Kim et al. (1995, supra).
[…] μl reaction volumes containing 3 mM ATP, 3 mM MgSO4, 5 μM gramicidin-D, 10 mM creatine phosphate, 16 units/ml creatine kinase, 50 mM KCl, 1 mg/ml BSA, 400 mM sorbitol, 25 mM Tris-Mes ([…]).
(§2) Cells were grown and vacuolar membrane-enriched vesicles were prepared as described (Kim et al., 1995, J Biol. Chem. 270:2630-2635-). […] Uptake was terminated by the addition of 1 ml ice-cold wash medium (400 mM sorbitol/3 mM Tris-Mes, pH 8.0) and vacuum filtration of the suspension through prewetted Millipore HA cellulose nitrate filters (pore size 0.45 μm). The filters were rinsed twice with wash medium, and the retained radioactivity was determined by liquid scintillation counting. Nonenergized uptake was estimated by the same procedure except that ATP was omitted from the uptake medium.

AtMRP2 = target: T3, AtMRP2 (Arabidopsis thaliana, UniProt Q42093); assay: AtMRP2-dependent uptake by membrane vesicles from pYES3-AtMRP2-transformed DTY168 cells; assay type: biochemical; settings: MgATP-dependent, uncoupler-insensitive
T3 construct: S. cerevisiae DTY168 (ycf1 null) vacuolar-enriched membrane vesicles
Procedure: as §2
Membranes from DTY168/pYES3-AtMRP2 cells were incubated for 10 minutes in standard uptake medium containing 61.3 μM [^3 H]DNP-GS after which time 200 mM glucose and 50 units/ml hexokinase (Type F-300 from baker's yeast) were added. […] Control samples were treated identically except that no additions were made after the initial 10 minute incubation period.

barley vacuoles = settings: cited from earlier work
[3] = target: T1, YCF1 (vacuolar membrane vesicles purified from DTY165 cells); assay: biochemical; assay type: biochemical
Outline: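 Vacuolar vesicles from wild-type (DTY165) or ycf1Δ (DTY167) yeast, washed free of DTT/EGTA into glycerol/Tris-Mes pH 8.0. MgATP-energized, uncoupler-insensitive uptake of 109Cd2+, GSH or purified radiolabeled Cd·GSn complexes measured at 25°C. Medium: 3 mM ATP/MgSO4, ATP-regenerating system, 5 μM gramicidin-D, Tris-Mes pH 8.0; washes contained 100 μM CdSO4.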

[4] = test system: vacuolar membrane vesicles purified from DTY167 cells (ycf1Δ mutant); assay type: biochemical, Saccharomyces cerevisiae
Procedure: In experiments involving cadmium transport, dithiothreitol and EGTA were removed from the suspension medium to prevent the attenuation of YCF1-dependent Cd^2+ transport otherwise exerted by these compounds. Vesiculated vacuolar membranes were subjected to three cycles of 50-fold dilution into simplified suspension medium (1.1 M glycerol, 5 mM Tris-Mes, pH 8.0), centrifugation at 100,000× g for 35 minutes and resuspension in the same medium before use.
Singly radiolabeled ^109 Cd.GSn and doubly radio-labeled ^109 Cd[^3 H].GS^n complexes were prepared by sequential gel-filtrationand anion-exchange chromatography of the reaction products generated by incubating 20 mM ^109 CdSO4 (78.4 mCi/mmol) with 40 mM GSH or 40 mM [^3 H]GSH (240 mCi/mmol) in 15 ml 10 mM phosphate buffer (pH 8.0) containing 150 mM KNO3 at 45° C. for 24 hours. For gel-filtration, 2 ml aliquots of the reaction mixture were applied to a column (40×1.5 cm ID) packed with water-equilibrated Sephadex G-1 5, eluted with deionized water and ^109 Cd and/or ^3 H in the fractions was measured by liquid scintillation counting. The fractions encompassed by each of the two ^109 Cd.GSn peaks identified were pooled, lyophilized and redissolved in 4 ml of loading buffer (5 mM Tris-Mes, pH 8.0). For anion-exchange chromatography, 0.5 ml aliquots of the resuspended lyophilizates from gel-filtration chromatography were applied to a Mono-Q HR5/5 column (Pharmacia) equilibrated with the same buffer. Elution was with a linear gradient of NaCl (0.5 ml/minute; 0-500 mM) dissolved in loading buffer. The individual fractions corresponding to the major peaks of ^109 Cd obtained from the Mono-Q column (one each for the peaks resolved by gel-filtration chromatography) were pooled, lyophilized and resuspended in 4 ml deionized water after liquid scintillation counting.
MgATP-energized, uncoupler-insensitive ^109 Cd^2+ uptake by vacuolar membrane vesicles was measured at 25° C. in 200 μl reaction volumes containing 3 mM ATP, 3 mM MgSO4, 5 μM gramicidin-D, 10 mM creatine phosphate, 16 units/ml creatine kinase, 50 mM KCl, 400 mM sorbitol, 25 mM Tris-Mes (pH 8.0) and the indicated concentrations of ^109 CdSO4, GSH or ^109 Cd- and/or ^3 H-labeled purified Cd.GSn complexes as described herein except that the wash media contained 100 μM CdSO4 in addition to sorbitol (400 mM) and Tris-Mes (3 mM, pH 8.0).

YCF1-specific mRNA = settings: 24 hour pretreatment; CdSO4 200 μM, CDNB 150 μM
[5] = 80 μM 109CdSO4, compound 1 mM, 5 μM gramicidin-D
[6] = 3 mM MgATP, 80 μM 109CdSO4, compound 1 mM, 5 μM gramicidin-D

T1 sequence (P39109 whole entry): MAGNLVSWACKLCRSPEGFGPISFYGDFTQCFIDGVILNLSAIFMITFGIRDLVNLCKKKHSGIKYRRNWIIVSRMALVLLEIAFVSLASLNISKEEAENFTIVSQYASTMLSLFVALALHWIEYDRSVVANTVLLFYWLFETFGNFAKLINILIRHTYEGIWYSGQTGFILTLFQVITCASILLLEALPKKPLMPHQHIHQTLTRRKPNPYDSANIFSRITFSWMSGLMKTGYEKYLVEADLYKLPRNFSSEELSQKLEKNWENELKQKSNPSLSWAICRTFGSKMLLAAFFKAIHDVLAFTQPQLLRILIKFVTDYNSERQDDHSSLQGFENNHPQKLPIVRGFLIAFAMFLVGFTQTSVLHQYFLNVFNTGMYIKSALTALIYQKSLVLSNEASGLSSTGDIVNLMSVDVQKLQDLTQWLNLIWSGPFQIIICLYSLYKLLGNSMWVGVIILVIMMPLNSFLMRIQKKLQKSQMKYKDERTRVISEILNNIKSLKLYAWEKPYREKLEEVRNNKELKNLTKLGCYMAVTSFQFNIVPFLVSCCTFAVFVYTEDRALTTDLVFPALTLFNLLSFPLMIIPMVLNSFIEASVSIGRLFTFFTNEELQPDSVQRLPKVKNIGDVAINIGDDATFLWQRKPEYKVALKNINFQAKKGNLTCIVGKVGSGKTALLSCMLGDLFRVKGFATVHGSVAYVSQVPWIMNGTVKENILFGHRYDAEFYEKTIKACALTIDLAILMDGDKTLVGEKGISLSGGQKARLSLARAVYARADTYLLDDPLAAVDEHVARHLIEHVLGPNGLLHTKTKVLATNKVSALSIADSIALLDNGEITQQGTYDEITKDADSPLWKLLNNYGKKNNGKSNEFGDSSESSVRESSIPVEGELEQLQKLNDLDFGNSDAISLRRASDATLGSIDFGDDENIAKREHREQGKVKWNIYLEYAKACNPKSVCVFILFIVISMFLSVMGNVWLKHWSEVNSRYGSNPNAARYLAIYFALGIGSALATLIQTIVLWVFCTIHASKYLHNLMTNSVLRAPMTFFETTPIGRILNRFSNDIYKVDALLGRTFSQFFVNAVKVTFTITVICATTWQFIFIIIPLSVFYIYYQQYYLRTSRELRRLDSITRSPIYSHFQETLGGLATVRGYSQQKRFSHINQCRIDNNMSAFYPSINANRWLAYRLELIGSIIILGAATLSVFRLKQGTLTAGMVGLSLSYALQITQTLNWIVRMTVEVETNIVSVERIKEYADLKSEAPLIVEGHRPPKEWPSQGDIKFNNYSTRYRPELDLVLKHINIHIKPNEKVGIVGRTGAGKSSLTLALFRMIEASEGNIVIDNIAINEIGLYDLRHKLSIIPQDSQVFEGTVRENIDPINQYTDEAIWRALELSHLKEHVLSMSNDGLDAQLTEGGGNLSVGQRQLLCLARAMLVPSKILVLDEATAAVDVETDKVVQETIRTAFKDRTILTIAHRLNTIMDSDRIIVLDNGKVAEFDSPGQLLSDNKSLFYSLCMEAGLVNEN
T2 sequence (Q9C8G9 whole entry): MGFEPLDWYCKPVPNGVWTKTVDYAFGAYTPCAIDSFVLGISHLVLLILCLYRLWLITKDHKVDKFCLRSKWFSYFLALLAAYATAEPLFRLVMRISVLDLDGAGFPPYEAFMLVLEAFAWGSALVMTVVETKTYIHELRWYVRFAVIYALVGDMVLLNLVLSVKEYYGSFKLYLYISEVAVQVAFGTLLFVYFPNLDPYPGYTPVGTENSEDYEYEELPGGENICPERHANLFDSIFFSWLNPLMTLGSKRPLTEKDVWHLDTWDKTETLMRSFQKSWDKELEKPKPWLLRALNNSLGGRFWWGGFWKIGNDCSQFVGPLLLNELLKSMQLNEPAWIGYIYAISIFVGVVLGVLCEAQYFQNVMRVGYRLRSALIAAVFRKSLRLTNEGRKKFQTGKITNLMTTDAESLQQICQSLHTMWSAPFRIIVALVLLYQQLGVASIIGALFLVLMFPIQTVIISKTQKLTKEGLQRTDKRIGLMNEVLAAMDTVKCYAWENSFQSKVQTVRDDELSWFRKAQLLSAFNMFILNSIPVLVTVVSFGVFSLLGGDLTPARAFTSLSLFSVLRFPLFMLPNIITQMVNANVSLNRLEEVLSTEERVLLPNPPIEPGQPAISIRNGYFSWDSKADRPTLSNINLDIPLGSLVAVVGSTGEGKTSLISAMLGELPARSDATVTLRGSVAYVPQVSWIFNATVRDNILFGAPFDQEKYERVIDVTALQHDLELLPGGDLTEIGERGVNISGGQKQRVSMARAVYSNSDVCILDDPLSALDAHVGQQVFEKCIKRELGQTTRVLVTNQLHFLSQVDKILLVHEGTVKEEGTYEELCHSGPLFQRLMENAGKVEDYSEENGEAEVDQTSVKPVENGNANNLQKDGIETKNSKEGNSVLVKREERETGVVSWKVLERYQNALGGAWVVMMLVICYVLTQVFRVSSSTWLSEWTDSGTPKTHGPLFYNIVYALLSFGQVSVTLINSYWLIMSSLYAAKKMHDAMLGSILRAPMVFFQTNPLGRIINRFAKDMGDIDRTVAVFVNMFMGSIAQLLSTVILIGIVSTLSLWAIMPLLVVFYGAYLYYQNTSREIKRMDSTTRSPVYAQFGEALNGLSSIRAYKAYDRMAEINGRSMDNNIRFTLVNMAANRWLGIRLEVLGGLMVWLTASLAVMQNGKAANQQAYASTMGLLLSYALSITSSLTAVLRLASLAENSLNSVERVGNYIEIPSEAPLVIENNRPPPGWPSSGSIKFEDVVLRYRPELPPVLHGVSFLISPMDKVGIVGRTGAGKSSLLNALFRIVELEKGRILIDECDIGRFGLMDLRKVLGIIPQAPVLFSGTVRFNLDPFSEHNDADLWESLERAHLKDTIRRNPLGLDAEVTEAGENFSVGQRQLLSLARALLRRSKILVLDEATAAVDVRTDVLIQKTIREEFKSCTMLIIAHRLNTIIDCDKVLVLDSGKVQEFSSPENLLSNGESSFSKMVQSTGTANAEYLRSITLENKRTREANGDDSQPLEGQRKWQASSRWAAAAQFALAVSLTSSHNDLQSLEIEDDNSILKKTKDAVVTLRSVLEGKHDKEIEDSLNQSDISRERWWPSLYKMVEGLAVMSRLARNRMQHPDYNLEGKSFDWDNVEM
T3 sequence (Q42093 whole entry): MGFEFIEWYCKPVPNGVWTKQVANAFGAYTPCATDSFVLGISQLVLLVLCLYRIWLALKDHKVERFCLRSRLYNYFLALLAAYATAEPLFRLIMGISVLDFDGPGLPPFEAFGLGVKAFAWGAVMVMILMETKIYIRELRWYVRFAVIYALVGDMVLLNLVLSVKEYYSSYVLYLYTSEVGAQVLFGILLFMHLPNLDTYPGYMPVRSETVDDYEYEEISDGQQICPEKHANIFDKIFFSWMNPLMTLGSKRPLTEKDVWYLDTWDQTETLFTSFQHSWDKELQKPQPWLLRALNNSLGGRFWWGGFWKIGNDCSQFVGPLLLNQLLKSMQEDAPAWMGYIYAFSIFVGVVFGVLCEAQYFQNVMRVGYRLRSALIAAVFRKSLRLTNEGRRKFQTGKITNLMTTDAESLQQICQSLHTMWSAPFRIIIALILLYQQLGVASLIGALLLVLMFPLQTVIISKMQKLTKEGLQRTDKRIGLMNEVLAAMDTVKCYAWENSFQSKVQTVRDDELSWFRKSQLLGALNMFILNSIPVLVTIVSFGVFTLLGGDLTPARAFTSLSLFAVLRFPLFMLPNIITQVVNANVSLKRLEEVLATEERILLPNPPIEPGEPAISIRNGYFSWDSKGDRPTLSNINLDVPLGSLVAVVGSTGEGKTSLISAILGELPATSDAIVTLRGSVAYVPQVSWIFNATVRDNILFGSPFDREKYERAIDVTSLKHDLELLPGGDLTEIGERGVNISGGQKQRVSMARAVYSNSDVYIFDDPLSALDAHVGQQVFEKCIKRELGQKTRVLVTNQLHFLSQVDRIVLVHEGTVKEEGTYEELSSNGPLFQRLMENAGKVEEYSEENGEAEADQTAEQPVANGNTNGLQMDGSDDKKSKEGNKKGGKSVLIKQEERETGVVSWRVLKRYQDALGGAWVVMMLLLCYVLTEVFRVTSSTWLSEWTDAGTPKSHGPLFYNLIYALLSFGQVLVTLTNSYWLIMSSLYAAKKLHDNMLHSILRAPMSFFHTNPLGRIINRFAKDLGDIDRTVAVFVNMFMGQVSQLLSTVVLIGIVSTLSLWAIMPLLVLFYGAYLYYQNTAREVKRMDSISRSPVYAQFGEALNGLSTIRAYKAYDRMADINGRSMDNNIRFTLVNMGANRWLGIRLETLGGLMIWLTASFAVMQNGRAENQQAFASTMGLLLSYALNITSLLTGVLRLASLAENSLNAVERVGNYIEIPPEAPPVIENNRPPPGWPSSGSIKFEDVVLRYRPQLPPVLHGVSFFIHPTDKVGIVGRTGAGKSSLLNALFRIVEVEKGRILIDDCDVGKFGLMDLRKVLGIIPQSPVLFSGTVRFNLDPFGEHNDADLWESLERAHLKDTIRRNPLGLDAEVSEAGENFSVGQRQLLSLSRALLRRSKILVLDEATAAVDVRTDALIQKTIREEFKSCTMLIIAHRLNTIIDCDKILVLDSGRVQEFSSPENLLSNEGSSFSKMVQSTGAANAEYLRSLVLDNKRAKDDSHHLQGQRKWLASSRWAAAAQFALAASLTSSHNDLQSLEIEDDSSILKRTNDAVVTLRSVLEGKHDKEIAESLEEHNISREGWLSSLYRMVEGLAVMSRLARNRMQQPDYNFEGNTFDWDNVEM

Compound	MgATP-dependent, uncoupler-insensitive DNP-GS uptake plus compound ([1]; 5 μM gramicidin D, GSH, GSSG 1 mM, GS-conjugates 100 μM)	MgATP-dependent, uncoupler-insensitive DNP-GS uptake as percentage of control ([1]; 5 μM gramicidin D, GSH, GSSG 1 mM, GS-conjugates 100 μM, 10 min)	inhibition at 100 µM ([1]; 100 μM compound)	MgATP-dependent, uncoupler-insensitive DNP-GS uptake plus compound [2]	MgATP-dependent, uncoupler-insensitive DNP-GS uptake as percentage of control ([2]; 10 min)	Vmax for AtMRP1-dependent uptake (AtMRP1)	Vmax for AtMRP1-dependent uptake (AtMRP1; listed as metolachlor-GS)	Vmax for AtMRP2-dependent uptake (AtMRP2)	Vmax for AtMRP2-dependent uptake (AtMRP2; listed as metolachlor-GS)	Km estimated previously (barley vacuoles)	increase of [3H]DNP-GS uptake into vesicles from pretreated cells ([1]; 24 hour pretreatment, CdSO4 200 μM, CDNB 150 μM, 66.2 μM DNP-GS)	109Cd uptake, -MgATP [3, 5]	MgATP-dependent, uncoupler-insensitive 109Cd2+ uptake rate ([3]; 80 μM Cd2+, 1 mM GSH)	109Cd uptake, +MgATP [3, 6]	increase of 109Cd.GS2 uptake into vesicles from pretreated cells ([3]; 24 hour pretreatment, CdSO4 200 μM, CDNB 150 μM, 50 μM Cd.GS2)	109Cd uptake, -MgATP [4, 5]	MgATP-dependent, uncoupler-insensitive 109Cd2+ uptake rate ([4]; 80 μM Cd2+, 1 mM GSH)	109Cd uptake, +MgATP [4, 6]	increase of YCF1-specific mRNA level (YCF1-specific mRNA)
CCc1cccc(C)c1N(C(=O)CSC[C@H](NC(=O)CC[C@H](N)C(=O)O)C(=O)NCC(=O)O)C(C)COC (stereo partly shown) [Metolachlor-GS]	27.6 ± 0.9 nmol/mg/10 minutes	57.7%	~50%	4.8 ± 0.7 nmol/mg/10 minutes	73.8%	17.5 ± 5.2 nmol/mg/10 min	17.5±5.2 nmol/mg/10 min	136.0 ± 28.1 nmol/mg/10 min	136.0±28.1 nmol/mg/10 min	40 to 60 µM	–	–	–	–	–	–	–	–	–
[Cd+2] [Cd^2+]	–	–	–	–	–	–	–	–	–	–	1.6 fold	5.8 ± 2.4 nmol/mg/10 minutes	4.5 nmol/mg/min	5.6 ± 1.5 nmol/mg/10 minutes	1.4 fold	4.3 ± 1.3 nmol/mg/10 minutes	0.8 nmol/mg/min	4.6 ± 2.1 nmol/mg/10 minutes	1.9 fold
